Patent US11638425B2, “Agent for inducing stress tolerance in plants” (Menicon Co. Ltd., priority 2017, dated 2023)

The compounds below were run on HSP17.6C-C1 of Arabidopsis thaliana (assay: HSP expression test (HSP17.6C-C1 upstream region linked to GUS, 4-MU production)). Conditions: 1 μM; soaked 6 hours at 22° C.; positive control 50 μM geldanamycin.
Assay type: in vivo
Design: key: 4-MU per plant divided by 4-MU of 50 μM geldanamycin positive control
Description: First, a construct linked to β-glucuronidase (GUS) gene was introduced to 1 kb upstream of HSP17.6C-C1 of Arabidopsis thaliana (the family Brassicaceae) to prepare a mutant. Each naphthoquinone compound (shown in Table 1) dissolved in DMSO was diluted to 1 μM, 10 μM, 100 μM, or 1000 μM (final concentration) with deionized water to prepare a test solution of each example (final concentration of DMSO: 1.0% by volume). A 50 μM geldanamycin solution was similarly prepared as a positive control.
Next, two individuals of 7-day-old Arabidopsis thaliana mutants grown in a ⅕ MS medium were soaked in 300 μL of the test solution of each example or the positive control at 22° C. for 6 hours. The Arabidopsis thaliana was washed with deionized water, then soaked in 200 μL of a 4-methylumbelliferyl-β-D-glucuronide hydrate solution containing a surfactant, and incubated at 22° C. for 16 hours in the dark. The fluorescence intensity of the supernatant was measured, and the amount of 4-methylumbelliferone (4-MU) production per plant was calculated. The calculated value of 4-MU was divided by the value of 4-MU of the positive control to calculate a ratio vs. positive control. A higher numerical value means that HSP was expressed at a larger level.
Each shikonin compound or alkannin compound (shown in Table 2) dissolved in DMSO was diluted to 1 μM, 10 μM, 100 μM, or 1000 μM (final concentration) with deionized water to prepare a test solution of each example (final concentration of DMSO: 1.0% by volume). A 50 μM geldanamycin solution was similarly prepared as a positive control. The other test procedures were performed in the same way as in Test Example 1. The calculated value of 4-MU was divided by the value of 4-MU of the positive control to calculate a ratio vs. positive control. […]

Question: Which “Ratio of 4-MU amount vs. positive control” value does the source give for NC1=C(Cl)C(=O)c2ccccc2C1=O [Example 12, 2-Amino-3-chloro-1,4-naphthoquinone] here?
Answer: 0.06

Question: How did the “Ratio of 4-MU amount vs. positive control” value turn out when CC(C)=CC[C@@H](O)C1=CC(=O)c2c(O)ccc(O)c2C1=O [Example 13, Shikonin] was run?
Answer: 0.04

Question: With CC(=O)O[C@H](CC=C(C)C)C1=CC(=O)c2c(O)ccc(O)c2C1=O [Example 14, Acetylshikonin] as the compound, how does the “Ratio of 4-MU amount vs. positive control” value read?
Answer: 0.05

Question: CC(C)=CC[C@@H](OC(=O)C(C)C)C1=CC(=O)c2c(O)ccc(O)c2C1=O [Example 15, Isobutyrylshikonin] was tested. Which “Ratio of 4-MU amount vs. positive control” value did it give?
Answer: 0.03

Question: How did the “Ratio of 4-MU amount vs. positive control” value turn out when CC(C)=CCC(OC(=O)CC(C)C)C1=CC(=O)c2c(O)ccc(O)c2C1=O (stereo not shown) [Example 16, Isovalerylshikonin] was run?
Answer: 0.04

Question: Which “Ratio of 4-MU amount vs. positive control” value does the source give for CC(C)=CC[C@@H](OC(=O)CC(C)(C)O)C1=CC(=O)c2c(O)ccc(O)c2C1=O [Example 17, β-Hydroxyisovalerylshikonin] here?
Answer: 0.10

Question: Which “Ratio of 4-MU amount vs. positive control” value does the source give for CCC(C)C(=O)O[C@H](CC=C(C)C)C1=CC(=O)c2c(O)ccc(O)c2C1=O (stereo partly drawn) [Example 18, α-Methyl-n-butylshikonin] here?
Answer: 0.02

Question: For CC(C)=CCC(OC(=O)C=C(C)C)C1=CC(=O)c2c(O)ccc(O)c2C1=O (stereo not drawn) [Example 19, β,β-Dimethylacrylshikonin], which “Ratio of 4-MU amount vs. positive control” value is on record?
Answer: 0.02

Question: With CC(C)=CC[C@H](O)C1=CC(=O)c2c(O)ccc(O)c2C1=O [Example 20, Alkannin] as the compound, how does the “Ratio of 4-MU amount vs. positive control” value read?
Answer: 0.04

Same assay, conditions: 10 μM; soaked 6 hours at 22° C.; positive control 50 μM geldanamycin

Question: NC1=C(Cl)C(=O)c2ccccc2C1=O [Example 12, 2-Amino-3-chloro-1,4-naphthoquinone] was tested. Which “Ratio of 4-MU amount vs. positive control” value did it give?
Answer: 0.15

Question: How did the “Ratio of 4-MU amount vs. positive control” value turn out when CC(C)=CC[C@@H](O)C1=CC(=O)c2c(O)ccc(O)c2C1=O [Example 13, Shikonin] was run?
Answer: 0.92

Question: How did the “Ratio of 4-MU amount vs. positive control” value turn out when CC(=O)O[C@H](CC=C(C)C)C1=CC(=O)c2c(O)ccc(O)c2C1=O [Example 14, Acetylshikonin] was run?
Answer: 1.03

Question: CC(C)=CC[C@@H](OC(=O)C(C)C)C1=CC(=O)c2c(O)ccc(O)c2C1=O [Example 15, Isobutyrylshikonin] was tested. Which “Ratio of 4-MU amount vs. positive control” value did it give?
Answer: 1.79

Question: With CC(C)=CCC(OC(=O)CC(C)C)C1=CC(=O)c2c(O)ccc(O)c2C1=O (stereo not shown) [Example 16, Isovalerylshikonin] as the compound, how does the “Ratio of 4-MU amount vs. positive control” value read?
Answer: 0.93

Question: CC(C)=CC[C@@H](OC(=O)CC(C)(C)O)C1=CC(=O)c2c(O)ccc(O)c2C1=O [Example 17, β-Hydroxyisovalerylshikonin] was tested. Which “Ratio of 4-MU amount vs. positive control” value did it give?
Answer: 0.71

Question: With CCC(C)C(=O)O[C@H](CC=C(C)C)C1=CC(=O)c2c(O)ccc(O)c2C1=O (stereo partly drawn) [Example 18, α-Methyl-n-butylshikonin] as the compound, how does the “Ratio of 4-MU amount vs. positive control” value read?
Answer: 1.00

Question: How did the “Ratio of 4-MU amount vs. positive control” value turn out when CC(C)=CCC(OC(=O)C=C(C)C)C1=CC(=O)c2c(O)ccc(O)c2C1=O (stereo not drawn) [Example 19, β,β-Dimethylacrylshikonin] was run?
Answer: 0.95

Question: For CC(C)=CC[C@H](O)C1=CC(=O)c2c(O)ccc(O)c2C1=O [Example 20, Alkannin], which “Ratio of 4-MU amount vs. positive control” value is on record?
Answer: 0.11

Same assay, conditions: 100 μM; soaked 6 hours at 22° C.; positive control 50 μM geldanamycin

Question: With NC1=C(Cl)C(=O)c2ccccc2C1=O [Example 12, 2-Amino-3-chloro-1,4-naphthoquinone] as the compound, how does the “Ratio of 4-MU amount vs. positive control” value read?
Answer: 0.19

Question: How did the “Ratio of 4-MU amount vs. positive control” value turn out when CC(C)=CC[C@@H](O)C1=CC(=O)c2c(O)ccc(O)c2C1=O [Example 13, Shikonin] was run?
Answer: 1.52

Question: CC(=O)O[C@H](CC=C(C)C)C1=CC(=O)c2c(O)ccc(O)c2C1=O [Example 14, Acetylshikonin] was tested. Which “Ratio of 4-MU amount vs. positive control” value did it give?
Answer: 1.00

Question: With CC(C)=CC[C@@H](OC(=O)C(C)C)C1=CC(=O)c2c(O)ccc(O)c2C1=O [Example 15, Isobutyrylshikonin] as the compound, how does the “Ratio of 4-MU amount vs. positive control” value read?
Answer: 1.19

Question: How did the “Ratio of 4-MU amount vs. positive control” value turn out when CC(C)=CCC(OC(=O)CC(C)C)C1=CC(=O)c2c(O)ccc(O)c2C1=O (stereo not shown) [Example 16, Isovalerylshikonin] was run?
Answer: 0.85

Question: Which “Ratio of 4-MU amount vs. positive control” value does the source give for CC(C)=CC[C@@H](OC(=O)CC(C)(C)O)C1=CC(=O)c2c(O)ccc(O)c2C1=O [Example 17, β-Hydroxyisovalerylshikonin] here?
Answer: 0.80

Question: With CCC(C)C(=O)O[C@H](CC=C(C)C)C1=CC(=O)c2c(O)ccc(O)c2C1=O (stereo partly drawn) [Example 18, α-Methyl-n-butylshikonin] as the compound, how does the “Ratio of 4-MU amount vs. positive control” value read?
Answer: 1.40

Question: With CC(C)=CCC(OC(=O)C=C(C)C)C1=CC(=O)c2c(O)ccc(O)c2C1=O (stereo not drawn) [Example 19, β,β-Dimethylacrylshikonin] as the compound, how does the “Ratio of 4-MU amount vs. positive control” value read?
Answer: 1.35

Question: With CC(C)=CC[C@H](O)C1=CC(=O)c2c(O)ccc(O)c2C1=O [Example 20, Alkannin] as the compound, how does the “Ratio of 4-MU amount vs. positive control” value read?
Answer: 0.62

Same assay, conditions: 1000 μM; soaked 6 hours at 22° C.; positive control 50 μM geldanamycin

Question: For NC1=C(Cl)C(=O)c2ccccc2C1=O [Example 12, 2-Amino-3-chloro-1,4-naphthoquinone], which “Ratio of 4-MU amount vs. positive control” value is on record?
Answer: 0.14

Question: How did the “Ratio of 4-MU amount vs. positive control” value turn out when CC(C)=CC[C@@H](O)C1=CC(=O)c2c(O)ccc(O)c2C1=O [Example 13, Shikonin] was run?
Answer: 0.85

Question: CC(=O)O[C@H](CC=C(C)C)C1=CC(=O)c2c(O)ccc(O)c2C1=O [Example 14, Acetylshikonin] was tested. Which “Ratio of 4-MU amount vs. positive control” value did it give?
Answer: 0.81

Question: CC(C)=CC[C@@H](OC(=O)C(C)C)C1=CC(=O)c2c(O)ccc(O)c2C1=O [Example 15, Isobutyrylshikonin] was tested. Which “Ratio of 4-MU amount vs. positive control” value did it give?
Answer: 1.23

Question: How did the “Ratio of 4-MU amount vs. positive control” value turn out when CC(C)=CCC(OC(=O)CC(C)C)C1=CC(=O)c2c(O)ccc(O)c2C1=O (stereo not shown) [Example 16, Isovalerylshikonin] was run?
Answer: 0.76

Question: How did the “Ratio of 4-MU amount vs. positive control” value turn out when CC(C)=CC[C@@H](OC(=O)CC(C)(C)O)C1=CC(=O)c2c(O)ccc(O)c2C1=O [Example 17, β-Hydroxyisovalerylshikonin] was run?
Answer: 0.25

Question: How did the “Ratio of 4-MU amount vs. positive control” value turn out when CCC(C)C(=O)O[C@H](CC=C(C)C)C1=CC(=O)c2c(O)ccc(O)c2C1=O (stereo partly drawn) [Example 18, α-Methyl-n-butylshikonin] was run?
Answer: 2.76

Question: For CC(C)=CCC(OC(=O)C=C(C)C)C1=CC(=O)c2c(O)ccc(O)c2C1=O (stereo not drawn) [Example 19, β,β-Dimethylacrylshikonin], which “Ratio of 4-MU amount vs. positive control” value is on record?
Answer: 2.28

Question: CC(C)=CC[C@H](O)C1=CC(=O)c2c(O)ccc(O)c2C1=O [Example 20, Alkannin] was tested. Which “Ratio of 4-MU amount vs. positive control” value did it give?
Answer: 1.13

The compounds below were run on Arabidopsis thaliana (assay: Heat tolerance induction test based on chlorophyll concentration). Conditions: 50 μM in medium; heat-treated at 44° C. for 1 hour; 3 days culture after.
Assay type: in vivo
Description: A ⅕ MS medium was prepared in a 6-well plate, and filter paper was placed thereon. 12 individuals of wild-type Arabidopsis thaliana were seeded per well and grown at 22° C. for 7 days in a plant incubator under 16-hour light and 8-hour dark conditions. Next, the naphthoquinone compound of each example (shown in Table 3) dissolved in DMSO was added to a ⅕ MS medium, and each medium (final concentration: 50 μM) was prepared in a 6-well plate (final concentration of DMSO: 1.0% by volume). A medium containing 1.0% by volume of DMSO was used as a control.
The Arabidopsis thaliana grown for 7 days in the 6-well plate was transplanted, together with the filter paper, to the medium containing the compound and cultured for 1 day in a plant incubator. The plate was placed in a plastic bag and heat-treated at 44° C. for 1 hour in a water bath. After the heat treatment, culture was performed for 3 days in a plant incubator. The leaves of 4 Arabidopsis thaliana individuals were cut out, and chlorophyll was extracted with 300 μL of ethanol. The absorbance of each extract was measured at 649 nm and 665 nm, and the chlorophyll concentration (mg/L) was calculated. A higher chlorophyll concentration means that heat tolerance is better.
The shikonin compound of each example (shown in Table 4) dissolved in DMSO was added to a ⅕ MS medium, and each medium (final concentration: 50 μM) was prepared in a 6-well plate (final concentration of DMSO: 1.0% by volume). A medium containing 1% by volume of DMSO was used as a control. The other test procedures were performed in the same way as in Test Example 3.
The Lithospermi radix extract used was Shikonix Liquid (BG) (trade name, manufactured by Ichimaru Pharcos Co., Ltd.) containing a Lithospermum erythrorhizon root extract. The Shikonix Liquid contained, as major components, shikonin compounds such as acetylshikonin, β-hydroxyisovalerylshikonin, and isobutyrylshikonin. The Shikonix Liquid also contained, as additional minor components, α-methyl-n-butylshikonin, β,β-dimethylacrylshikonin, isovalerylshikonin, and shikonin.
The Shikonix Liquid (BG) was added at a dilution ratio of 150-fold to a ⅕ MS medium. The same amount of water was added as a control. ThermoZyme (manufactured by Fujimikogyo Co., Ltd.) was added at a dilution ratio of 150-fold as a positive control (Reference Example). The other test procedures were performed in the same way as in Test Example 3.

Question: For CC(C)=CC[C@@H](O)C1=CC(=O)c2c(O)ccc(O)c2C1=O [Example 13, Shikonin], which Chlorophyll concentration is on record?
Answer: 6.28 mg/L

Question: For CC(=O)O[C@H](CC=C(C)C)C1=CC(=O)c2c(O)ccc(O)c2C1=O [Example 14, Acetylshikonin], which Chlorophyll concentration is on record?
Answer: 5.73 mg/L

Question: For CC(C)=CC[C@@H](OC(=O)C(C)C)C1=CC(=O)c2c(O)ccc(O)c2C1=O [Example 15, Isobutyrylshikonin], which Chlorophyll concentration is on record?
Answer: 6.29 mg/L

Question: With CC(C)=CC[C@@H](OC(=O)CC(C)(C)O)C1=CC(=O)c2c(O)ccc(O)c2C1=O [Example 17, β-Hydroxyisovalerylshikonin] as the compound, how does the Chlorophyll concentration read?
Answer: 5.57 mg/L
